Assay results as given in PMC6200399 (ACS chemical biology, 2018).
pEC50: −log10 of the molar value. Several values for one entry are separate records, joined by “and”; a condition that tells them apart may be missing. Equal entries are not always repeated.

Experiments:
[1] = target: T1, RhlR (Pseudomonas aeruginosa, UniProt P54292); assay: E. coli RhlR reporter competitive antagonism assay versus 10 μM BHL; assay type: cell-based, P. aeruginosa; details: compounds screened at 1 mM in the presence of 10 μM BHL, relative to activation of 10 μM BHL alone
T1 sequence (P54292 whole entry): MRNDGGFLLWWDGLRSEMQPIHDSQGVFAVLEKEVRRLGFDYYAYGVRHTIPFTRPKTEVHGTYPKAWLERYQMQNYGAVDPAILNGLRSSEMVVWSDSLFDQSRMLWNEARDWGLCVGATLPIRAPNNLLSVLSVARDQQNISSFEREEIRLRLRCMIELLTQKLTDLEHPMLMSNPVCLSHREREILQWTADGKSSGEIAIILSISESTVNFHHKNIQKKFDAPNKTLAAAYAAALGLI

[2] = target: LasR (Pseudomonas aeruginosa, UniProt P25084); assay: E. coli LasR reporter antagonism assay; assay type: cell-based, P. aeruginosa; details: compounds at 1 mM, versus 2 nM OdDHL (Table S3)
Sequence of LasR (P25084 whole entry): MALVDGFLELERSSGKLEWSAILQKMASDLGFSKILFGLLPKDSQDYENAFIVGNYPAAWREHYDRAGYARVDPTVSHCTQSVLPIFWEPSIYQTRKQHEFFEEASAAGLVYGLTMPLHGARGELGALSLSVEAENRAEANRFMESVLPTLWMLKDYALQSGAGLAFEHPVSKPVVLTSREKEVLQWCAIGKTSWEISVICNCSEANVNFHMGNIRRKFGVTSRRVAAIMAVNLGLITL

[3] = target: T1, RhlR; assay: E. coli RhlR reporter agonism assay; assay type: cell-based, P. aeruginosa; details: for % activation: compounds screened at 10 μM, RhlR activity relative to BHL at 1 mM, E. coli reporter; for pEC50: read-out: EC50 (RhlR agonism, E. coli), E. coli RhlR reporter, dose-response; for fold more potent than BHL (RhlR agonism potency): EC50 relative to BHL
[4] = target: T1, RhlR; assay: P. aeruginosa PAO-JP2; assay type: cell-based; details: read-out: EC50 (RhlR agonism, P. aeruginosa); P. aeruginosa PAO-JP2 prhlI-LVAgfp; in the presence of 100 nM OdDHL

Row | Molecule | % activation [3] [%] | pEC50 [3] | pEC50 [4] | other results
1 | 1-methyl-cyclopropanoyl HL [Compound 20] | – | – | – | % inhibition [1]: 24%
2 | CCCC(=O)N[C@H]1CCOC1=O [Compound 1, N-butanoyl-L-homoserine lactone, reference compound] | 51 | – | – | LasR antagonism (% inhibition) [2]: antagonize; pEC50 ([3]; listed as 1 (BHL)): 5.05; pEC50 ([3]; listed as BHL): ~5.00 and ~5.05
3 | CC(C)CC(=O)N[C@H]1CCOC1=O [Compound 7, isovaleryl HL] | 86 | 5.99 | 5.85 | LasR antagonism (% inhibition) [2]: > 70%; fold more potent than BHL (RhlR agonism potency) [3]: ~10 fold
4 | CCC(C)C(=O)NC1CCOC1=O (stereo not shown) [Compound 8, 2-methylbutanoyl HL] | 55 | 5.11 | – | –
5 | O=C(NC1CCOC1=O)C1CCC1 (stereo not shown) [Compound 17, cyclobutanoyl HL] | 79 | 5.75 | 5.85 | LasR antagonism (% inhibition) [2]: > 70%; fold more potent than BHL (RhlR agonism potency) [3]: ~10 fold
6 | CCCC(=O)N[C@@H]1CCOC1=O [Compound 25, D-BHL] | 2 | – | – | RhlR agonism at 1 mM ([3]; compound at 1 mM, E. coli reporter (Table S2)): marginal activity; % inhibition [1]: 11%
7 | CCCC(=O)NC1CCSC1=O (stereo not shown) [Compound 26] | 71 | 5.31 | 5.42 | –
8 | CCCC(=O)N[C@H]1CCNC1=O [Compound 27] | 1 | – | – | –
9 | CCCC(=O)NC1CCCC1=O (stereo not shown) [Compound 28] | 35 | 4.56 | 4.84 | fold less active than BHL (RhlR agonism potency) ([3]; E. coli reporter EC50 relative to BHL, p < 0.05): under 3 fold
10 | CCCC(=O)NC1CCOC1 (stereo not shown) [Compound 30] | 0 | – | – | –
11 | Butenyl HL [Compound 14] | – | 5.16 | – | –
12 | cyclopentyl HL [Compound 3, reference compound] | 76 | 5.80 | 5.91 | –
13 | cyclopropyl HL [Compound 18] | 32 | – | – | –
14 | pentenyl HL [Compound 2, reference compound] | 54 | 5.10 | – | –
15 | propyl HL [Compound 4] | 25 | – | – | –
